Results taken from patent US8343990B2, “Substituted cyclopropyl compounds, compositions containing such compounds and methods of treatment” (Merck Sharp & Dohme Corp., priority 2008, dated 2013).

Each compound was assayed against T1, GPR119 receptor (UniProt Q8TDV5, S309L, species not given) (assay: GPR119 signaling, cyclic AMP (cAMP) homogenous time resolved fluorescence (HTRF) assay). Conditions: CHO cells with Gα15 and murine GPR119, or HEK293 Flp-In cells with human GPR119 S309L; table does not say which; read-out: Activity: inflection points, denoted as EC50 values (agonist activation of GPR119, cAMP).
T1 sequence (Q8TDV5 1-335 S309L): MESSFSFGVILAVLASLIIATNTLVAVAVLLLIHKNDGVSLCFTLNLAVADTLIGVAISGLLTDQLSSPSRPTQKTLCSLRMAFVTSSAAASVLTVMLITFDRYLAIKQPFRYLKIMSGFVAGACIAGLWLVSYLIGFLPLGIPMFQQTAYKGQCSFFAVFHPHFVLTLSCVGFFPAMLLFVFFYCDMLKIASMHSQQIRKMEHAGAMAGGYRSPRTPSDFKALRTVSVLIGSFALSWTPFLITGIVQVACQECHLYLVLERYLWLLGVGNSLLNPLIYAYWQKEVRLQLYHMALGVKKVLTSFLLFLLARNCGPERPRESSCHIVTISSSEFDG
Format: cell-based
Source text: Measurement of GPR119 Signaling Using a Cyclic AMP (cAMP) Homogenous Time Resolved Fluorescence (HTRF) Assay
Chinese hamster ovary (CHO) cell lines stably transfected with the permissive guanine nucleotide binding protein alpha 15 (Gα15) and […] GPR119 were maintained in DMEM media containing FBS, penicillin-streptomycin, puromycin, and G418 (geneticin). Alternatively, human embryonic kidney (HEK)293 Flp-In cells (Invitrogen, Carlsbad, Calif.) were stably transfected with a human SNP variant (S309L) of GPR119 and maintained in DMEM media containing FBS, penicillin-streptomycin, and hygromycin. Agonist activation of the GPR119 receptor was measured in receptor transfected cells described above, treated with compounds of this invention, using a commercial homogenous time resolved fluorescence (HTRF) kit for measurement of cAMP (CisBio, Bedford, Mass.). The assay was performed in 96-well half-volume plates (murine) or 384-well plates (human) following the manufacturers instructions. Briefly, suspended cells were incubated with a dose titration of test compound at room temperature for 60 min, lysed, and incubated with HTRF reagents for an additional 60 min. The plate was read using an Envision multilabel reader (Perkin Elmer) adjusted to read time resolved fluorescence and the cAMP concentrations were extrapolated from a cAMP calibration curve. […] The concentration of test compound required to stimulate a half-maximal response (EC50), and efficacy as compared to an internal agonist control, was determined from a sigmoidal 4-parameter curve fit of the resulting plot of normalized activity versus compound concentration.

Row | Structure (SMILES) | EC50
1 | Cc1nnc(-c2cccc(OCCC3CC3C3CCN(c4ncc(Cl)cn4)CC3)c2)o1 (racemic) [Ex 8, rac cis-5-chloro-2-[4-(2-{2-[3-(5-methyl-1,3,4-oxadiazol-2-yl)phenoxy]ethyl}cyclopropyl)piperidin-1-yl]pyrimidine] | > 0.2 µM
2 | Clc1cnc(N2CCC(C3CC3CCOc3cccc(-n4cncn4)c3)CC2)nc1 (racemic) [Ex 9, rac cis-5-chloro-2-[4-(2-{2-[3-(1H-1,2,4-triazol-1-yl)phenoxy]ethyl}cyclopropyl)piperidin-1-yl]pyrimidine] | 0.05 to 0.2 µM
3 | Clc1cnc(N2CCC(C3CC3CCOc3cccc(-c4nnco4)c3)CC2)nc1 (racemic) [Ex 10, rac cis-5-chloro-2-[4-(2-{2-[3-(1,3,4-oxadiazol-2-yl)phenoxy]ethyl}cyclopropyl)piperidin-1-yl]pyrimidine] | > 0.2 µM
4 | Clc1cnc(N2CCC(C3CC3CCOc3ccc(-c4ncon4)cc3)CC2)nc1 (racemic) [Ex 17, rac cis-5-chloro-2-[4-(2-{2-[4-(1,2,4-oxadiazol-3-yl)phenoxy]ethyl}cyclopropyl)piperidin-1-yl]pyrimidine] | 0.05 to 0.2 µM
5 | Clc1cnc(N2CCC(C3CC3CCOc3ccc(-c4ncno4)cc3)CC2)nc1 (racemic) [Ex 18, rac cis-5-chloro-2-[4-(2-{2-[4-(1,2,4-oxadiazol-5-yl)phenoxy]ethy]}cyclopropyl)piperidin-1-yl]pyrimidine] | 0.05 to 0.2 µM
6 | Clc1cnc(N2CCC(C3CC3CCOc3ccc(-c4cnoc4)cc3)CC2)nc1 (racemic) [Ex 20, rac cis-5-chloro-2-(4-{2-[2-(4-isoxazol-4-ylphenoxy)ethyl]cyclopropyl)piperidin-1-yl)pyrimidine] | 0.05 to 0.2 µM
7 | Clc1cnc(N2CCC(C3CC3CCOc3ccc(-c4cn[nH]c4)cc3)CC2)nc1 (racemic) [Ex 23, rac cis-5-chloro-2-[4-(2-{2-[4-(1H-pyrazol-4-yl)phenoxy]ethyl}cyclopropyl)piperidin-1-yl]pyrimidine] | 0.05 to 0.2 µM
8 | Clc1cnc(N2CCC(C3CC3CCOc3ccc(-n4cccn4)cc3)CC2)nc1 (racemic) [Ex 24, rac cis-5-chloro-2-[4-(2-{2-[4-(1H-pyrazol-1-yl)phenoxy]ethyl}cyclopropyl)piperidin-1-yl]pyrimidine] | 0.05 to 0.2 µM
9 | Cc1cnc(N2CCC(C3CC3CCOc3ccc(-n4ccnn4)cc3)CC2)nc1 (racemic) [Ex 27c, rac cis-5-methyl-2-[4-(2-{2-[4-(1H-1,2,3-triazol-1-yl)phenoxy]ethyl}cyclopropyl)piperidin-1-yl]pyrimidine] | 0.01 to 0.05 µM
10 | Clc1cnc(N2CCC(C3CC3CCOc3ccc(-n4nccn4)cc3)CC2)nc1 (racemic) [Ex 28, rac cis-5-chloro-2-[4-(2-{2-[4-(2H-1,2,3-triazol-2-yl)phenoxy]ethyl}cyclopropyl)piperidin-1-yl]pyrimidine] | 0.05 to 0.2 µM
11 | Clc1cnc(N2CCC(C3CC3CCOc3ccc(-c4cnn[nH]4)cc3)CC2)nc1 (racemic) [Ex 29, rac cis-5-chloro-2-[4-(2-{2-[4-(1H-1,2,3-triazol-5-yl)phenoxy]ethyl}cyclopropyl)piperidin-1-yl]pyrimidine] | > 0.2 µM

The remaining lines, values ahead:

Row | EC50 | Structure (SMILES)
12 | < 0.01 µM | CS(=O)(=O)c1ccc(OCCC2CC2C2CCN(c3ncc(Cl)cn3)CC2)cc1 (racemic) [Ex 6, rac cis-5-chloro-2-[4-(2-{2-[4-(methylsulfonyl)phenoxy]ethyl}cyclopropyl)piperidin-1-yl]pyrimidine]
13 | < 0.01 µM | CS(=O)(=O)c1ccc(OCC[C@H]2C[C@H]2C2CCN(c3ncc(Cl)cn3)CC2)nc1 (racemic) [Ex 6a, rac-cis 5-chloro-2-{-4-[2-(2-{[5-(methylsulfonyl)pyridin-2-yl]oxy}ethyl)cyclopropyl]piperidin-1-yl}pyrimidine]
14 | < 0.01 µM | CS(=O)(=O)c1cccc(OCCC2CC2C2CCN(c3ncc(Cl)cn3)CC2)c1 (racemic) [Ex 7, rac cis-5-chloro-2-[4-(2-{2-[3-(methylsulfonyl)phenoxy]ethyl}cyclopropyl)piperidin-1-yl]pyrimidine]
15 | < 0.01 µM | O=C(NC1CC1)c1ccc(OCCC2CC2C2CCN(c3ncc(Cl)cn3)CC2)cc1F (racemic) [Ex 11, rac cis-4-(2-{2-[1-(5-chloropyrimidin-2-yl)piperidin-4-yl]cyclopropyl}ethoxy)-N-cyclopropyl-2-fluorobenzamide]
16 | 0.01 to 0.05 µM | N#Cc1ccc(OCCC2CC2C2CCN(c3ncc(Cl)cn3)CC2)cc1F (racemic) [Ex 12, rac cis-4-(2-{2-[1-(5-chloropyrimidin-2-yl)piperidin-4-yl)cyclopropyl}ethoxy)-2-fluorobenzonitrile]
17 | 0.01 to 0.05 µM | O=S(=O)(c1ccc(OCCC2CC2C2CCN(c3ncc(Cl)cn3)CC2)cc1)C1CC1 (racemic) [Ex 13, rac cis-5-chloro-2-[4-(2-{2-[4-(cyclopropylsulfonyl)phenoxy]ethyl}cyclopropyl)piperidin-1-yl]pyrimidine]
18 | 0.01 to 0.05 µM | Clc1cnc(N2CCC(C3CC3CCOc3ccc(-c4nnco4)cc3)CC2)nc1 (racemic) [Ex 15, rac cis-5-chloro-2-[4-(2-{2-[4-(1,3,4-oxadiazol-2-yl)phenoxy]ethyl}cyclopropyl)piperidin-1-yl]pyrimidine]
19 | < 0.01 µM | Cc1nnc(-c2ccc(OCCC3CC3C3CCN(c4ncc(Cl)cn4)CC3)cc2)o1 (racemic) [Ex 16, rac cis-5-chloro-2-[4-(2-{2-[4-(5-methyl-1,3.4-oxadiazol-2-yl)phenoxy]ethyl}cyclopropyl)piperidin-1-yl]pyrimidine]
20 | 0.01 to 0.05 µM | Clc1cnc(N2CCC(C3CC3CCOc3ccc(-c4cocn4)cc3)CC2)nc1 (racemic) [Ex 19, rac cis-5-chloro-2-[4-(2-{2-[4-(1,3-oxazol-4-yl)phenoxy]ethyl}cyclopropyl)piperidin-1-yl]pyrimidine]
21 | 0.01 to 0.05 µM | Clc1cnc(N2CCC(C3CC3CCOc3ccc(-c4ccno4)cc3)CC2)nc1 (racemic) [Ex 21, rac cis-5-chloro-2-(4-{2-[2-(4-isoxazol-5-ylphenoxy)ethyl]cyclopropyl}piperidin-1-yl)pyrimidine]
22 | 0.01 to 0.05 µM | Clc1cnc(N2CCC(C3CC3CCOc3ccc(-c4ccn[nH]4)cc3)CC2)nc1 (racemic) [Ex 22, rac cis-5-chloro-2-[4-(2-{2-[4-(1H-pyrazol-3-yl)phenoxy]ethy]}cyclopropyl)piperidin-1-yl]pyrimidine]
23 | 0.01 to 0.05 µM | Clc1cnc(N2CCC(C3CC3CCOc3ccc(-n4cncn4)cc3)CC2)nc1 (racemic) [Ex 25, rac cis-5-chloro-2-[4-(2-{2-[4-(1H-1,2,4-triazol-1-yl)phenoxy]ethyl}cyclopropyl)piperidin-1-yl]pyrimidine]
24 | 0.01 to 0.05 µM | Clc1cnc(N2CCC(C3CC3CCOc3ccc(-n4cnnc4)cc3)CC2)nc1 (racemic) [Ex 26, rac cis-5-chloro-2-[4-(2-{2-[4-(4H-1,2,4-triazol-4-yl)phenoxy]ethyl}cyclopropyl)piperidin-1-yl]pyrimidine]
25 | < 0.01 µM | Clc1cnc(N2CCC(C3CC3CCOc3ccc(-n4ccnn4)cc3)CC2)nc1 (racemic) [Ex 27, rac cis-5-chloro-2-[4-(2-{2-[4-(1H-1,2,3-triazol-1-yl)phenoxy]ethyl}cyclopropyl)piperidin-1-yl]pyrimidine]
26 | < 0.01 µM | Clc1cnc(N2CCC(C3CC3CCOc3ccc(-n4cnnn4)cc3)CC2)nc1 (racemic) [Ex 30, rac cis-5-chloro-2-[4-(2-{2-[4-(1H-tetrazol-1-yl)phenoxy]ethyl}cyclopropyl)piperidin-1-yl]pyrimidine]
